In US8349837B2, “Pharmaceutical composition comprising racemic aminopterin” (Aminopterin, LLC, priority 2009, dated 2013):

Experiment: Pharmacokinetics and oral absorption in Beagle dogs
Conditions: for Mean Plasma D-isomer: Beagle dogs N=10, oral capsule by gastric placement, 1 mg D-isomer
Experimental: Ten (N=10) Beagle dogs were enrolled in a pharmacokinetic study to examine the oral absorption of 1 tablet of the pure L-isomer tablet formulation (batch 116I0604), 1 mg of the D-isomer admixed with 99 mg microcrystalline cellulose, and 4 tablets of the racemic tablet formulation (batch 157I0907). Each formulation was encapsulated in a hard gelatin capsule and administered by direct gastric placement. Dosing of each formulation was separated by a 7 day washout period. The mean body weight of the ten dogs was 11.3±1.7 (SD) kilograms.
For pharmacokinetic analysis, venous blood samples with EDTA as anticoagulant were taken before each dosing and at 0.5, 1, 1.5, 2, 3, 6, 9 and 12 hours after each dosing. Samples were centrifuged, and the plasma collected and frozen for analysis. There was no urine sampling in this study. Aminopterin in plasma samples was quantitated by an achiral LC/MS assay (Advion Biosciences, Ithaca, N.Y.). The lower limit of quantitation (LLOQ) of the assay was 0.5 ng/ml or 1.2 nM. The amount of L-isomer and D-isomer in plasma samples from animals dosed with the racemate was determined using a chiral LC/MS assay.

[1] = Beagle dogs, oral, isomers given separately

| Structure (SMILES) | Mean Plasma D-isomer (collection time 0.0 hr (before dosing)) [µM] | Mean Plasma D-isomer (collection time 0.5 hr) [µM] | Mean Plasma D-isomer (collection time 1.0 hr) [µM] | Mean Plasma D-isomer (collection time 1.5 hr) [µM] | Mean Plasma D-isomer (collection time 2.0 hr) [µM] | Mean Plasma D-isomer (collection time 3.0 hr) [µM] | Mean Plasma D-isomer (collection time 6.0 hr) [µM] | Mean Plasma D-isomer (collection time 9.0 hr) [µM] | Mean Plasma D-isomer (collection time 12.0 hr) [µM] | oral absorption when given separately [1] | systemic exposure relative to that of the L-isomer (AUC ratio) [1] |
| --- | --- | --- | --- | --- | --- | --- | --- | --- | --- | --- | --- |
| Nc1nc(N)c2nc(CNc3ccc(C(=O)N[C@H](CCC(=O)O)C(=O)O)cc3)cnc2n1 (single isomer, unassigned) [D-isomer] | 0.0000 | 0.0050 | 0.0117 | 0.0150 | 0.0152 | 0.0106 | 0.0034 | 0.0023 | 0.0026 | efficiently absorbed | approximately 30% |
| Nc1nc(N)c2nc(CNc3ccc(C(=O)N[C@@H](CCC(=O)O)C(=O)O)cc3)cnc2n1 [L-isomer] |  |  |  |  |  |  |  |  |  | efficiently absorbed |  |
